# Activity calls are given as the source filed them. The calls are words filed in the database; no cut-off is given here.
# Assays:
# [1] = AUC (0 to infinity) in Sprague-Dawley rat at 3.5 mg/kg, po measured for 24 hrs by LC-MS/MS analysis; assay type: ADME, organism-based; conditions: in vivo
# [2] = Half life in Sprague-Dawley rat at 3.5 mg/kg, po measured for 24 hrs by LC-MS/MS analysis; assay type: ADME, organism-based; conditions: in vivo
# [3] = Half life in Sprague-Dawley rat at 3.5 mg/kg, iv measured for 24 hrs by LC-MS/MS analysis; assay type: ADME, organism-based; conditions: in vivo
# RAW264.7 [4] = experiment: Anti-inflammatory activity against mouse RAW264.7 cells assessed as inhibition of LPS-induced p38 phosphorylation at 50 to 500 nM by Western blot analysis; assay type: functional, cell-based; conditions: dose 50-500 nM
# [5] = Oral bioavailability in Sprague-Dawley rat at 3.5 mg/kg measured for 24 hrs by LC-MS/MS analysis; assay type: ADME, organism-based; conditions: in vivo
# RAW264.7 [6] = experiment: Anti-inflammatory activity against mouse RAW264.7 cells assessed as inhibition of LPS-induced IL-1beta level
# RAW264.7 [7] = experiment: Anti-inflammatory activity against mouse RAW264.7 cells assessed as inhibition of LPS-induced TNF-alpha mRNA level at 50 to 500 nM by RT-qPCR analysis; assay type: functional, cell-based; conditions: dose 50-500 nM
# [8] = Cmax in Sprague-Dawley rat at 3.5 mg/kg, ip measured for 24 hrs by LC-MS/MS analysis; assay type: ADME, organism-based; conditions: in vivo
# Mus musculus [9] = experiment: (§1) Anti-inflammatory activity in C57BL/6 mouse model of LPS-induced acute lung injury assessed as decrease in IL-1beta mRNA level in lung at 10 mg/kg, ip treated for 3 days followed by LPS treatment after 1 hr post-compound administration on fourth day measured after 18 hrs post-LPS treatment by RT-qPCR analysis; assay type: functional, organism-based; conditions: time 91.0 hrs
# RAW264.7 [10] = experiment: Anti-inflammatory activity against mouse RAW264.7 cells assessed as inhibition of LPS-induced IL-1beta mRNA level at 50 to 500 nM by RT-qPCR analysis; assay type: functional, cell-based; conditions: dose 50-500 nM
# [11] = AUC (0 to t) in Sprague-Dawley rat at 3.5 mg/kg, iv measured for 24 hrs by LC-MS/MS analysis; assay type: ADME, organism-based; conditions: in vivo
# HBE [12] = experiment: Anti-inflammatory activity against HBE cells assessed as inhibition of LPS-induced p-p65 level pretreated for 30 mis followed by LPS treatment for 16 hrs by Western blot analysis; assay type: functional, cell-based; conditions: Homo sapiens, dose 0.5-5 µM, time 16.5 hrs
# [13] = Anti-inflammatory activity against HBE cells assessed as inhibition of LPS-induced IL-6 level at 5 uM pretreated for 30 mins followed by LPS treatment for 24 hrs by ELISA relative to control; assay type: functional; conditions: Homo sapiens, time 24.5 hrs
# Mus musculus [14] = experiment: Anti-inflammatory activity in C57BL/6 mouse model of LPS-induced acute lung injury assessed as decrease in number of total cells in BALF at 10 mg/kg, ip treated for 3 days followed by LPS treatment after 1 hr post-compound administration on fourth day measured after 18 hrs post-LPS treatment; assay type: functional, organism-based; conditions: time 91.0 hrs
# Mus musculus [15] = experiment: as §1, with “alveolar hemorrhage” for “IL-1beta mRNA level”, “H and E staining based” for “RT-qPCR”; assay type: functional, organism-based; conditions: time 91.0 hrs
# Mus musculus [16] = experiment: In vivo inhibition of mature CTSL in lung of C57BL/6 mouse model of LPS-induced acute lung injury at 10 to 20 mg/kg, ip treated for 3 days followed by LPS treatment after 1 hr post-compound administration on fourth day measured after 18 hrs post-LPS treatment by Western blot analysis; assay type: functional, organism-based; conditions: dose 10-20 mg/kg, time 91.0 hrs
# Mus musculus [17] = experiment: as §1, with “disruption of epithelial cell structures” for “IL-1beta mRNA level”, “H and E staining based” for “RT-qPCR”; assay type: functional, organism-based; conditions: time 91.0 hrs
# HBE [18] = experiment: Anti-inflammatory activity against HBE cells assessed as inhibition of LPS-induced p-Ikappa-Balpha level pretreated for 30 mis followed by LPS treatment for 16 hrs by Western blot analysis; assay type: functional, cell-based; conditions: Homo sapiens, dose 0.5-5 µM, time 16.5 hrs
# [19] = Anti-inflammatory activity against HBE cells assessed as inhibition of LPS-induced IL-8 level at 5 uM pretreated for 30 mins followed by LPS treatment for 24 hrs by ELISA relative to control; assay type: functional; conditions: Homo sapiens, time 24.5 hrs
# Mus musculus [20] = experiment: as §1, with “TNF-alpha” for “IL-1beta”; assay type: functional, organism-based; conditions: time 91.0 hrs
# Mus musculus [21] = experiment: as §1, with “disruption of endothelial cell structures” for “IL-1beta mRNA level”, “H and E staining based” for “RT-qPCR”; assay type: functional, organism-based; conditions: time 91.0 hrs
# [22] = AUC (0 to t) in Sprague-Dawley rat at 3.5 mg/kg, ip measured for 24 hrs by LC-MS/MS analysis; assay type: ADME, organism-based; conditions: in vivo
# Procathepsin L [23] = molecular target: T1, Procathepsin L (Homo sapiens, UniProt P07711); experiment: Inhibition of CTSL maturation in HBE cells pretreated for 30 mis followed by LPS treatment for 16 hrs by Western blot analysis; assay type: cell-based; conditions: dose 0.5-5 µM, time 16.5 hrs
# Target sequence in this assay (P07711 114-333 limits assumed): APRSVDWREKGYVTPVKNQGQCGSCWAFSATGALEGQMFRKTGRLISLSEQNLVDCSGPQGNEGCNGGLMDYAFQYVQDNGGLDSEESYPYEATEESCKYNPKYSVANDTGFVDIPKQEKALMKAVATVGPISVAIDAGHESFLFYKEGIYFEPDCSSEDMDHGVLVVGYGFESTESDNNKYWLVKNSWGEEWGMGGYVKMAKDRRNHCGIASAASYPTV
# Mus musculus [24] = experiment: Anti-inflammatory activity in C57BL/6 mouse model of LPS-induced acute lung injury assessed as decrease in wet to dry ratio in lung at 10 mg/kg, ip treated for 3 days followed by LPS treatment after 1 hr post-compound administration on fourth day measured after 18 hrs post-LPS treatment; assay type: functional, organism-based; conditions: time 91.0 hrs
# cells [25] = conditions: Homo sapiens, HBE
# Description: Anti-inflammatory activity against HBE cells assessed as inhibition of LPS-induced IL-6 level pretreated for 30 mins followed by LPS treatment for 24 hrs by ELISA
# RAW264.7 [26] = experiment: Cytotoxicity against mouse RAW264.7 cells assessed as cell viability at 0.5 to 5 uM; assay type: toxicity, cell-based; conditions: raw264.7, 5 µM, dose 0.5-5 µM
# [27] = Half life in Sprague-Dawley rat at 3.5 mg/kg, ip measured for 24 hrs by LC-MS/MS analysis; assay type: ADME, organism-based; conditions: in vivo
# RAW264.7 [28] = experiment: Anti-inflammatory activity against mouse RAW264.7 cells assessed as inhibition of LPS-induced IL-1beta level at 50 to 500 nM; assay type: functional, cell-based; conditions: dose 50-500 nM
# [29] = AUC (0 to infinity) in Sprague-Dawley rat at 3.5 mg/kg, ip measured for 24 hrs by LC-MS/MS analysis; assay type: ADME, organism-based; conditions: in vivo
# cells [30] = conditions: Homo sapiens, HBE; remark: listed apart in the source
# Description: Anti-inflammatory activity against HBE cells assessed as inhibition of LPS-induced IL-8 level pretreated for 30 mins followed by LPS treatment for 24 hrs by ELISA
# Procathepsin L [31] = molecular target: T1, Procathepsin L; experiment: Inhibition of recombinant human Cat L using f Z-Phe-Arg-AMC as substrate preincubated for 30 mins followed by substrate addition
# Target sequence in this assay (P07711 whole entry): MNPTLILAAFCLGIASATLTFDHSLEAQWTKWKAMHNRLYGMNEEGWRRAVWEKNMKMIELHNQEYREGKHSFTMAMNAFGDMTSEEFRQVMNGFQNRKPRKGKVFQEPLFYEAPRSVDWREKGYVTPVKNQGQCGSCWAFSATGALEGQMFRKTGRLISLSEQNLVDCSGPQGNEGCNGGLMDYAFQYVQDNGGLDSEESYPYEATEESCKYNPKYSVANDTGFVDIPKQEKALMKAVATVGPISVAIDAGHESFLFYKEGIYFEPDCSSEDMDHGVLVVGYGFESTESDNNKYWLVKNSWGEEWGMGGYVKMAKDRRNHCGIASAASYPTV
# [32] = AUC (0 to infinity) in Sprague-Dawley rat at 3.5 mg/kg, iv measured for 24 hrs by LC-MS/MS analysis; assay type: ADME, organism-based; conditions: in vivo
# Mus musculus [33] = experiment: as §1, with “inflammatory cell infiltration” for “IL-1beta mRNA level”, “H and E staining based” for “RT-qPCR”; assay type: functional, organism-based; conditions: time 91.0 hrs
# RAW264.7 [34] = experiment: Anti-inflammatory activity against mouse RAW264.7 cells assessed as inhibition of LPS-induced IL-6 level
# Mus musculus [35] = experiment: Anti-inflammatory activity in C57BL/6 mouse model of LPS-induced acute lung injury assessed as decrease in total protein concentration in BALF at 10 mg/kg, ip treated for 3 days followed by LPS treatment after 1 hr post-compound administration on fourth day measured after 18 hrs post-LPS treatment; assay type: functional, organism-based; conditions: time 91.0 hrs
# RAW264.7 [36] = experiment: Anti-inflammatory activity against mouse RAW264.7 cells assessed as inhibition of LPS-induced COX-2 level by Western blot analysis; assay type: functional, cell-based; conditions: dose 50-500 nM
# RAW264.7 [37] = experiment: Anti-inflammatory activity against mouse RAW264.7 cells assessed as inhibition of LPS-induced iNOS level by Western blot analysis; assay type: functional, cell-based; conditions: dose 50-500 nM
# [38] = AUC (0 to t) in Sprague-Dawley rat at 3.5 mg/kg, po measured for 24 hrs by LC-MS/MS analysis; assay type: ADME, organism-based; conditions: in vivo
# RAW264.7 [39] = experiment: Anti-inflammatory activity against mouse RAW264.7 cells assessed as inhibition of LPS-induced IL-6 mRNA level at 50 to 500 nM by RT-qPCR analysis; assay type: functional, cell-based; conditions: dose 50-500 nM
# [40] = Cmax in Sprague-Dawley rat at 3.5 mg/kg, iv measured for 24 hrs by LC-MS/MS analysis; assay type: ADME, organism-based; conditions: in vivo
# [41] = Cmax in Sprague-Dawley rat at 3.5 mg/kg, po measured for 24 hrs by LC-MS/MS analysis; assay type: ADME, organism-based; conditions: in vivo
# Mus musculus [42] = experiment: as §1, with “IL-6” for “IL-1beta”; assay type: functional, organism-based; conditions: time 91.0 hrs
# Procathepsin L [43] = molecular target: T1, Procathepsin L; experiment: Induction of thermal stabilization of pro-CTSL in protein lysate extracted from human THP-1 cells pretreated for 6 hrs followed by heat exposure at 37 to 62 degreeC for 3 mins by CETSA; assay type: subcellular; conditions: time 363.0 min
# Target sequence in this assay (P07711 114-333 limits assumed): as the sequence (P07711 114-333 limits assumed) above
# Mus musculus [44] = experiment: as §1, with “pulmonary edema” for “IL-1beta mRNA level”, “H and E staining based” for “RT-qPCR”; assay type: functional, organism-based; conditions: time 91.0 hrs
smiles,measurement,setting,value
Cc1ccc(Nc2nccc(-c3cn(C)c4ccccc34)n2)cc1N.Cl,AUC(0-inf),[1],1050 ng·h/mL
same,half-life,[2],6.48 h
same,half-life,[3],5.06 h
same,inhibition,RAW264.7 [4],Active; Result Indicates Compound Suppresses Mapk Pathway
same,bioavailability,[5],51.1%
same,IC50,RAW264.7 [6],480 nM
same,inhibition,RAW264.7 [7],Active
same,Cmax,[8],331 ng/mL
same,Activity,Mus musculus [9],Active
same,inhibition,RAW264.7 [10],Active
same,AUC(0-t) at 24 h,[11],1630 ng·h/mL
same,inhibition,HBE [12],Dose-dependent-effect
same,inhibition at 5 µM,[13],69%
same,Activity,Mus musculus [14],Active
same,Activity,Mus musculus [15],Active
same,inhibition,Mus musculus [16],Active
same,Activity,Mus musculus [17],Active
same,inhibition,HBE [18],Dose-dependent-effect
same,inhibition at 5 µM,[19],76%
same,Activity,Mus musculus [20],Active
same,Activity,Mus musculus [21],Active
same,AUC(0-t) at 24 h,[22],1510 ng·h/mL
same,inhibition,Procathepsin L [23],Dose-dependent-effect
same,Activity,Mus musculus [24],Active
same,IC50,cells [25],1070 nM
same,Activity,RAW264.7 [26],Non-toxic
same,half-life,[27],5.19 h
same,inhibition,RAW264.7 [28],Active
same,AUC(0-inf),[29],1580 ng·h/mL
same,IC50,cells [30],2080 nM
same,IC50,Procathepsin L [31],820 nM
same,AUC(0-inf),[32],1690 ng·h/mL
same,Activity,Mus musculus [33],Active
same,IC50,RAW264.7 [34],144 nM
same,Activity,Mus musculus [35],Active
same,inhibition,RAW264.7 [36],Dose-dependent-effect
same,inhibition,RAW264.7 [37],Dose-dependent-effect
same,AUC(0-t) at 24 h,[38],830 ng·h/mL
same,inhibition,RAW264.7 [39],Active
same,Cmax,[40],504 ng/mL
same,Cmax,[41],193 ng/mL
same,Activity,Mus musculus [42],Active
same,Activity,Procathepsin L [43],Active
same,Activity,Mus musculus [44],Active
